Converted amounts (≈) assume the structure as drawn. “And” between values parts separate entries of the source, which are not always exact repeats. Equal values may be shown once.
Legend:
[1] = system: Staphylococcus aureus ATCC 29213; test: Antibacterial susceptibility testing, IC90 determination (STA); assay type: cell-based; settings: Staphylococcus aureus, ATCC29213, Staphylococcus aureus ATCC 29213, broth microdilution, resazurin; read-out: STA (361.159) IC90
Experimental: (§1) The following bacteria were used: Staphylococcus aureus ATCC 29213, methicillin-resistant Staphylococcus aureus (MRSA) ATCC 700788 and Escherichia coli ATCC 35218. The bacteria used in this study were grown overnight in flasks containing 100 ml Mueller-Hinton broth (Difco cat. nr. 0757-17) in sterile de-ionized water, with shaking, at 37° C. Stocks were store at −70° C. until use.
(§2) Bacteria were incubated on a tryptic soy agar plate containing 5% sheep blood (Becton Dickinson cat. nr. 254053) for 18-24 hours at 35° C. in aerobic conditions (first passage). For the second passage, fresh Mueller-Hinton broth is inoculated with 5-10 colonies and grown overnight at 35° C. until turbidity (reaching log-phase) in aerobic conditions is reached. The bacterial suspension is then adjusted to 0.5 McFarland density and further diluted 1:100 in Mueller Hinton broth medium. This is used as inoculum.
The result(s) are depicted the table below (for STA ATCC 29213).
(§3) MIC assays were performed by the broth microdilution method in a 96-well format (flat-bottom microtitre plates) with a final volume of 0.1 ml Mueller Hinton broth containing two-fold serial dilutions of compounds and inoculated with 5×10^5 CFU/ml of bacteria (standard inoculum size according to CLSI guidelines). Inhibitors are typically varied over the range of 63 to 0.49 μM. The final DMSO concentration in the assay was 1.25% (maximum tolerable DMSO concentration=6%). In the assays where the effect of human serum on the activity of the compounds against S. aureus was tested, human serum was added at a final concentration of 10%. The plates were incubated at 35° C. for 16-20 hours. At the end of incubation the bacterial growth was quantified fluorometrically. For this, resazurin was added to all wells and the plates were re-incubated. The incubation time is dependent on the type of bacteria. A change in color from blue to pink indicated the growth of bacteria. The fluorescence was read in computer-controlled fluorometer (Fluoroskan Ascent FL, Labsystems) at an excitation wavelength 540 nm and an emission wavelength of 590 nm. The % growth inhibition achieved by the compounds was calculated according to standard methods. The IC90 (expressed in μg/ml) was defined as the 90% inhibitory concentration for bacterial growth. A panel of reference compounds were simultaneously tested for QC approval.

[2] = Cytotoxicity MTT assay (HELAM); assay type: cell-based, Human; settings: human, HelaM cells, read-out: HELAM (222.125) CC50
Experimental: Cytotoxicity of the compounds was evaluated using the MTT assay. Human HelaM cells grown in 96-well plates were exposed to serial dilutions of the tested compounds (final volume of 0.2 ml) and incubated for 72 hours at 37° C. and 5% CO2. Inhibitors are typically varied over the range of 25 to 0.8 μM. The final DMSO concentration in the assay is 0.5%. MTT (3-(4,5-Dimethylthiazol-2-yl)-2,5-diphenyltetrazolium bromide, a tetrazole) was added and reduced to purple formazan only in living cells. Solubilization of the formazan crystals was achieved by adding 100 μl 2-propanol. Cell viability was determined by measuring the absorbance of the reduced formazan, giving a purple color, at 540 nm and 690 nm. The absorbance measured at 690 nm was automatically subtracted from the absorbance at 540 nm, to eliminate the effects of non-specific absorption. The percent cytotoxicity achieved by the compounds was calculated according to standard methods. Cytotoxicity is reported as CC50, the concentration that causes a 50% reduction in cell viability.
The results are depicted in the table(s) below (HELAM).

[3] = molecular target: T1, S. aureus ATCC 29213 FabI (Staphylococcus aureus, UniProt Q6GI75); test: Staphylococcus aureus FabI enzyme inhibition assay; assay type: biochemical; settings: read-out: FabI (300.235) IC50 (converted)
T1 sequence (Q6GI75 1-256): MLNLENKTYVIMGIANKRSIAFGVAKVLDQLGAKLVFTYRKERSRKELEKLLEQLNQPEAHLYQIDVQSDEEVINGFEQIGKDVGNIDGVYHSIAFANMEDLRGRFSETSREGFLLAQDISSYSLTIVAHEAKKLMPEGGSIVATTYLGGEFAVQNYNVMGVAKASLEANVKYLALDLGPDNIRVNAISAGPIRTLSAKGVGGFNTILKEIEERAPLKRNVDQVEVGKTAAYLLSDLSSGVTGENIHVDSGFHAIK
Experimental: Y.1 FabI Enzyme Inhibition: Staphylococcus aureus FabI Enzyme Inhibition Assay
FabI enzyme inhibition assays were carried out in half-area, 384-well microtitre plates. Compounds were evaluated in 40-μl assay mixtures containing 100 mM NaADA, pH 6.5 (ADA=N-[2-acetamido]-2iminodiacetic acid), 250 μM crotonoyl-CoA, 625 μM NADH and 50 μg/ml S. aureus ATCC 29213 FabI. Inhibitors were typically varied over the range of 50 to 0.39 μM. The reaction mixtures were incubated for 30 minutes at room temperature and the reaction was stopped by adding 200 mM Tris buffer (pH 9.0) to create a pH-shift. The consumption of NADH was monitored by measuring the change in absorbance at […]. By comparing sample readings to those of negative (absence of compound) and positive (absence of enzyme) controls, the percent inhibition of enzymatic activity of the compounds was determined A best-fit curve is fitted by a minimum of squares method. From this an IC50-value (expressed in μg/ml), resulting in 50% inhibition of enzymatic activity, was obtained.

S. aureus = test: Antibacterial susceptibility testing, IC90 determination with 10% human serum (STA + 10% HS); assay type: cell-based, Staphylococcus aureus; settings: Staphylococcus aureus, human serum at final concentration of 10%, read-out: STA + 10% HS (361.169) IC90
Experimental: as §1, §2, §3
The results are depicted in the table(s) below (STA+10% HS).

| Structure (SMILES) | IC90 [1] | CC50 at 72 h [2] | IC50 [3] | melting point | IC90 (S. aureus) |
| --- | --- | --- | --- | --- | --- |
| COc1cncc(C(=O)Nc2ccc(/C=C/C(=O)N3CC4C=C(c5ccnn5C)CC4C3)cn2)c1 (stereo not shown) [compound 31] | 0.72 µg/mL (≈ 1.53 µM) | > 11.8 µg/mL | 659 nM | 89.36 °C | 0.86 µg/mL |
| COc1cncc(C(=O)Nc2ccc(/C=C/C(=O)N3CC4C=C(c5nccs5)CC4C3)cn2)c1 (stereo not shown) [compound 32] | < 0.23 µg/mL | > 11.9 µg/mL | 718 nM | 207 °C | < 0.23 µg/mL |
| COc1cncc(C(=O)Nc2ccc(/C=C/C(=O)N3CC4C=C(c5ccsc5)CC4C3)cn2)c1 (stereo not shown) [compound 33] | < 0.23 µg/mL | > 11.9 µg/mL | 1290 nM | 205 °C | < 0.23 µg/mL |
| O=C1Nc2ncc(/C=C/C(=O)N3CC4C=C(c5ccsc5)CC4C3)cc2CO1 (stereo not shown) [compound 35] | 0.16 µg/mL (≈ 0.407 µM) | > 3.93 µg/mL | 839 nM | > 250 °C | 0.37 µg/mL |
| O=C1COc2cc(/C=C/C(=O)N3CC4C=C(c5ccncc5)CC4C3)cnc2N1 (stereo not shown) [compound 36] | 0.16 µg/mL (≈ 0.412 µM) | > 3.88 µg/mL | 1130 nM | > 260 °C | < 0.08 µg/mL |
| O=C1COCc2cc(/C=C/C(=O)N3CC4C=C(c5ccccc5)CC4C3)cnc2N1 (stereo not shown) [compound 39] | < 0.19 µg/mL | > 10.1 µg/mL | ~1620 nM | 266.57 °C and 266.6 °C | 0.35 µg/mL |
| O=C1COCc2cc(/C=C/C(=O)N3CC4C=C(c5ccsc5)CC4C3)cnc2N1 (stereo not shown) [compound 41] | < 0.2 µg/mL | > 10.2 µg/mL | 1030 nM | 152 °C | 0.23 µg/mL |
| O=C1COCc2cc(/C=C/C(=O)N3CC4C=C(c5nccs5)CC4C3)cnc2N1 (stereo not shown) [compound 49] | 0.25 µg/mL (≈ 0.612 µM) | > 10.3 µg/mL | ~930 nM | 260.34 °C | 0.24 µg/mL |
| CN1CC(=O)Nc2ncc(/C=C/C(=O)N3CC4C=C(c5ccccc5)CC4C3)cc2C1 (stereo not shown) [compound 50] | 0.35 µg/mL (≈ 0.844 µM) | > 20.8 µg/mL | 965 nM | 202 °C | 0.4 µg/mL |
| O=C1Nc2ncc(/C=C/C(=O)N3CC4C=C(c5ccccc5)CC4C3)cc2CO1 (stereo not shown) [compound 51] | 0.35 µg/mL (≈ 0.903 µM) | > 9.73 µg/mL | 903 nM | > 250 °C | 0.71 µg/mL |
| O=C1CNCc2cc(/C=C/C(=O)N3CC4C=C(c5ccncc5)CC4C3)cnc2N1 (stereo not shown) [compound 52] | 0.37 µg/mL (≈ 0.922 µM) | > 10.1 µg/mL | 971 nM | > 260 °C | 0.35 µg/mL |
| O=C1COCc2cc(/C=C/C(=O)N3CC4C=C(c5ccncc5)CC4C3)cnc2N1 (stereo not shown) [compound 54] | 0.38 µg/mL (≈ 0.944 µM) | > 10.1 µg/mL | 1020 nM | 154 °C | 0.35 µg/mL |
| O=C1Nc2ncc(/C=C/C(=O)N3CC4C=C(c5ccncc5)CC4C3)cc2CO1 (stereo not shown) [compound 55] | 0.76 µg/mL (≈ 1.96 µM) | > 9.76 µg/mL | 927 nM | 156 °C | 0.71 µg/mL |
| Cn1nccc1C1=CC2CN(C(=O)/C=C/c3cnc4c(c3)COCC(=O)N4)CC2C1 (stereo not shown) [compound 56] | 1.51 µg/mL (≈ 3.72 µM) | > 10.2 µg/mL | 1180 nM | 149 °C | 1.44 µg/mL |
| Cn1nccc1C1=CC2CN(C(=O)/C=C/c3cnc4c(c3)CNCC(=O)N4)CC2C1 (stereo not shown) [compound 57] | 1.54 µg/mL (≈ 3.81 µM) | > 10.2 µg/mL | 939 nM | 228 °C | 1.52 µg/mL |
| CN1CC(=O)Nc2ncc(/C=C/C(=O)N3C[C@@H]4CN(c5ccccc5)C[C@@H]4C3)cc2C1 [compound 58] | 3.39 µg/mL (≈ 8.12 µM) | > 10.5 µg/mL | 1700 nM | 178.9 to 179.8 °C | 3.13 µg/mL |
| COc1ccccc1N1C[C@H]2CN(C(=O)/C=C/c3cnc4c(c3)CN(C)CC(=O)N4)C[C@H]2C1 [compound 59] | 3.39 µg/mL (≈ 7.57 µM) | > 11.2 µg/mL | 2230 nM | 114 °C | 3.17 µg/mL |
| CC(C)C1Oc2cc(/C=C/C(=O)N3CC4C=C(c5ccccc5)CC4C3)cnc2NC1=O (stereo not shown) [compound 63] | < 0.21 µg/mL | > 10.8 µg/mL | 1420 nM | 224.9 °C | 0.36 µg/mL |
| CC(C)C1Oc2cc(/C=C/C(=O)N3CC4C=C(c5nccs5)CC4C3)cnc2NC1=O (stereo not shown) [compound 64] | < 0.21 µg/mL | > 11 µg/mL | 825 nM | 223.55 °C | < 0.21 µg/mL |
| CC(C)C1Oc2cc(/C=C/C(=O)N3CC4C=C(c5ccncc5)CC4C3)cnc2NC1=O (stereo not shown) [compound 65] | < 0.21 µg/mL | > 10.8 µg/mL | 859 nM | 113.11 °C | < 0.21 µg/mL |

Source: patent US9315522B2, “Antibacterial compounds” (JANSSEN SCIENCES IRELAND UC, priority 2012, dated 2016)
